Data set [1] has as its target T1, Clostridium thermosulfurogenes DNA polymerase, N-terminal His6 tag (Cth-His), SEQ ID NO:15 (Thermoanaerobacterium thermosulfurigenes, UniProt Q6X9R5).
T1 sequence (Q6X9R5 with tags, fused parts or gaps): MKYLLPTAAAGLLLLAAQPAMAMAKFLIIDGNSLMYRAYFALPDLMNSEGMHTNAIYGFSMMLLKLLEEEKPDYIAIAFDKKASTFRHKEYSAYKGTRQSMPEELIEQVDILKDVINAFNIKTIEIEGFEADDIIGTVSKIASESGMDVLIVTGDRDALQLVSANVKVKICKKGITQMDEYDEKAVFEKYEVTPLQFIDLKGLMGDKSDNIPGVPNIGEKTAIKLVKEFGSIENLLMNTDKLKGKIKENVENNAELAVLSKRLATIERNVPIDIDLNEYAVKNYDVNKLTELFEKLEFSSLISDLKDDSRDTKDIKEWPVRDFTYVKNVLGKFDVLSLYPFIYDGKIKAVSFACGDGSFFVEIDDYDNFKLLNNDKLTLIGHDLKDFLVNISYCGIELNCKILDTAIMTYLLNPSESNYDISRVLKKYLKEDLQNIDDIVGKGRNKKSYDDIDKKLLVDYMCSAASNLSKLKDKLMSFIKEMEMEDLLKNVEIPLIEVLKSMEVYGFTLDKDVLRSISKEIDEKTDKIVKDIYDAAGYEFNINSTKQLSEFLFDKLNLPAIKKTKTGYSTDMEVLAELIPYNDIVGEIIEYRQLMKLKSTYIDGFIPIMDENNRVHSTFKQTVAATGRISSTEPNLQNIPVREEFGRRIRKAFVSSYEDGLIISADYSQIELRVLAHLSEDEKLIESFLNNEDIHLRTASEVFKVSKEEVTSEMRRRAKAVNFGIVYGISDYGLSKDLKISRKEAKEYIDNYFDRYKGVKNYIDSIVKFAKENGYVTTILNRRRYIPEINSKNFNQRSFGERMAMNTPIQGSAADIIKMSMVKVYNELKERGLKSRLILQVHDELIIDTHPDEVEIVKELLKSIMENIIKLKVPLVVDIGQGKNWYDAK
The data set can be described thus: Steady-state kinetics, DNA- and RNA-dependent polymerase activity. The settings on record: Table 34, DNA template, 2 mM MgCl2, 45 °C per footnote. From the text: (§1) Subcloning of genes for Cst and Cth DNA polymerases. In order to improve expression and simplify purification of Cst and Cth DNA polymerase, the genes were subcloned downstream of a T7 promoter and an amino-terminal His6 tag sequence was introduced using Gateway cloning technology (Invitrogen Corporation, Carlsbad, Calif.). The sequence of the DNA oligonucleotide used at the 5′ end of the Cst gene was: 5′-[…] ATAGAC 3′ (SEQ ID NO:37). The sequence of the DNA oligonucleotide used at the 5′ end of the Cth gene was: 5′-[…] […]-3′ (SEQ ID NO:38). The sequence of the DNA oligonucleotide used at the 3′ end of each gene was the same: 5′-[…] […] 3′ (SEQ ID NO:39). Purified pET26B plasmid DNA (Novagen Inc., Madison, Wis.) bearing the gene for Cst or Cth DNA polymerase was amplified by PCR utilizing the primers listed above and Platinum Taq HiFi DNA polymerase (Invitrogen Corporation, Carlsbad, Calif.). PCR products purified by agarose gel electrophoresis were cloned into Gateway vector pDON21 and transferred by recombination into vector pDEST17. […] Each final recombinant plasmid was transformed into the E. coli expression host BL21-AI (Invitrogen Corporation, Carlsbad, Calif.).
(§2) Purification of Cst-His and Cth-His DNA polymerases. E. coli cells (BL21AI) bearing the plasmid pDEST17 with the gene for Cst-His or Cth-His DNA polymerase were grown in 2.8-1 Fembach flasks in LB broth containing 50 μg/ml ampicillin at 37° C. After the culture reached an A590 of 1.0, expression of DNA polymerase was induced by the addition of 0.2% arabinose for 3 hr. Cells were harvested by centrifugation and stored at −70° C.
(§3) Steady-state kinetic measurements.
(§4) The assays were conducted in the presence of 1.5 mM MgCl2 at 55° C. for all enzymes except the Caldibacillus cellulovorans CompA.2 enzyme where 2 mM MgCl2 and 45° C. were used.

For data set [2], the target named is T2, Clostridium stercorarium DNA polymerase, N-terminal His6 tag (Cst-His), SEQ ID NO:14 (Thermoclostridium stercorarium, UniProt L7VMI6).
T2 sequence (L7VMI6 with tags, fused parts or gaps): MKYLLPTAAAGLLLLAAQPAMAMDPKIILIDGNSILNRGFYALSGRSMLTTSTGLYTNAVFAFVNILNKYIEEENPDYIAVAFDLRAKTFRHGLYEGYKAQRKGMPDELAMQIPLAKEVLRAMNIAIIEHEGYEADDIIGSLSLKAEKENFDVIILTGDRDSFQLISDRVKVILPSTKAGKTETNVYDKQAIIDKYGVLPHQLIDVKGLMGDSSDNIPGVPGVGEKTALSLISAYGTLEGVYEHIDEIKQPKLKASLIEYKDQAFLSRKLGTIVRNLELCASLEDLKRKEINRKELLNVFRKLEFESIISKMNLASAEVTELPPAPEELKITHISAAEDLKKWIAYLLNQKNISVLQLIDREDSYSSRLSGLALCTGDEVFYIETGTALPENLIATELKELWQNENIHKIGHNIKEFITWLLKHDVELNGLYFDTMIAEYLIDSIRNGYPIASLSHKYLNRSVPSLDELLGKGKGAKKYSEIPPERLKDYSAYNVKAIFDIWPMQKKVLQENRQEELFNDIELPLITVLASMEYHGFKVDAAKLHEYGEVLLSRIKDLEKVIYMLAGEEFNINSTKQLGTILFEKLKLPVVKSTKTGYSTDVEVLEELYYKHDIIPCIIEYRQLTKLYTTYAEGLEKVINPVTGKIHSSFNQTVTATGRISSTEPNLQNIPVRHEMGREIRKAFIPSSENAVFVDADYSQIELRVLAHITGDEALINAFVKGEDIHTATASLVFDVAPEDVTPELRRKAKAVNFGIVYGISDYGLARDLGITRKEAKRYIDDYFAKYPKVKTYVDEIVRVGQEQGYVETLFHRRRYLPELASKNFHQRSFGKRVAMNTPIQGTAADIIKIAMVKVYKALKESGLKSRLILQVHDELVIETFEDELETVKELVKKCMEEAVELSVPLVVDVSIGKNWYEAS
The data set is described as above. The settings on record: Table 34, DNA template, 2 mM MgCl2, 45 °C per footnote.
Source text: as §1, §2, §3, §4

The target in data set [3] is SuperScript II reverse transcriptase (SSII, SS II RT), a modified M-MLV reverse transcriptase (Moloney murine leukemia virus isolate Shinnick, UniProt P03355). Described as above. The class given is biochemical. On the procedure: (§5) Thermotoga neapolitana (Tne) DNA polymerase mutated to eliminate 3′ to 5′ and 5′ to 3′ exonuclease activity was cloned, engineered and purified as described in U.S. Pat. No. 6,306,588. SuperScript II reverse transcriptase (SS II RT) was from Invitrogen Corporation, Carlsbad, Calif.
as §3
(§6) The catalytic rate constant kcat and the Michaelis constant KM were determined for both the DNA-dependent and RNA-dependent polymerase activities for the polypeptides of the invention and these parameters were compared to those of Tne DNA polymerase enzyme and […]™ II reverse transcriptase. […]

For data set [4], the target named is T3, Thermotoga neapolitana (Tne) DNA polymerase, mutated to eliminate 3′ to 5′ and 5′ to 3′ exonuclease activity (Thermotoga neapolitana, UniProt B9K7T2).
T3 construct: mutated to eliminate 3'-5' and 5'-3' exonuclease activity as in US 6,306,588 (recalled, unsure: D137A and D323A)
T3 sequence (B9K7T2 entry or part of it, stated change not applied): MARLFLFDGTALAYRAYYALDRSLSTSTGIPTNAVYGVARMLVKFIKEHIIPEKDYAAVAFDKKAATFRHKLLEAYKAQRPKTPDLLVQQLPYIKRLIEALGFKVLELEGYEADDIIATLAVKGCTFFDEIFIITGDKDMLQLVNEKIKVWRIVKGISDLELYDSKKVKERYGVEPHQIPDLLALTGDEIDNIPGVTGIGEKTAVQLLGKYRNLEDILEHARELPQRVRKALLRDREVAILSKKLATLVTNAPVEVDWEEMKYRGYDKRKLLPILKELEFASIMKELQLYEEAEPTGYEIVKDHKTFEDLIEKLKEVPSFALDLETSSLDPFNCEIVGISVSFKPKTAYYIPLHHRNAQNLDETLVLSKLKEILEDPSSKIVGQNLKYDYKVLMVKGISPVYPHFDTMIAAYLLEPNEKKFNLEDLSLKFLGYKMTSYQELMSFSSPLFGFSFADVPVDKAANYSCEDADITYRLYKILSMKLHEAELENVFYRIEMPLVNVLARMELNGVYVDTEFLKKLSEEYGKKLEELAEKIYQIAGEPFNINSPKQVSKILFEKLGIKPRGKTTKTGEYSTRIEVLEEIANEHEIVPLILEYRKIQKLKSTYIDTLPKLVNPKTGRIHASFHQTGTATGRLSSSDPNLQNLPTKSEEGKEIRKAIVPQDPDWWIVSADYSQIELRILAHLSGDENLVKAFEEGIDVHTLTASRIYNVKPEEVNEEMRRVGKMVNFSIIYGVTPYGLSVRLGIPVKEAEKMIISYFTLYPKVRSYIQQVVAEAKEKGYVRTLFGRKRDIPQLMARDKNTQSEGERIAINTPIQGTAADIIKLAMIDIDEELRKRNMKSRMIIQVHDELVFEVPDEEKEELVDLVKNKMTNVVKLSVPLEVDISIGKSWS
Described as above. It is filed as biochemical. The method, then: as §5, §3, §6

Substrate in data set [5]: Cc1cn([C@H]2C[C@H](O)[C@@H](COP(=O)(O)OP(=O)(O)OP(=O)(O)O)O2)c(=O)[nH]c1=O
Kind of data set: purified protein, by the assay type. The settings on record: 55 °C, mean ± SD.

Where [6] appears, read: Table 34, DNA template, 2 mM MgCl2, 45 °C per footnote.
The mark [7] stands for this setting: read-out: Km DNA (dGTP), Table 34, DNA template, 2 mM MgCl2, 45 °C per footnote.
Where [8] appears, read: other: Table 40, (dA)270•(dT)40, dTTP.
The mark [9] stands for this setting: other: Table 40, (rA)250•(dT)30, dTTP.

This note sets out measurements from patent publication US20160108381A1, “DNA POLYMERASES AND MUTANTS THEREOF” (LIFE TECHNOLOGIES CORPORATION, priority 2001, published 2016).

For orientation: Km means the concentration of substrate that gives half-maximal velocity. What is called kcat is the maximal rate divided by the concentration of active sites.

Take `Nc1nc2c(ncn2[C@H]2C[C@H](O)[C@@H](COP(=O)(O)OP(=O)(O)OP(=O)(O)O)O2)c(=O)[nH]1` [dGTP]: the “Kcat DNA (dGTP)” value was 57 s⁻¹ in data set [1], 11.5 s⁻¹ in data set [2], 15.4 s⁻¹ in data set [3] (setting [6]) and 17.5 s⁻¹ in data set [4] (setting [6]). The Km in data set [1] (read-out: Km DNA (dGTP)) came to 17.1 µM; in data set [2] (read-out: Km DNA (dGTP)), 0.5 µM; in data set [3] (setting [7]), 2.4 µM; in data set [4] (setting [7]), 17.2 µM. For the same molecule, the “kCAT DNA-DNA” value amounted to 16 ± 2 s⁻¹ in data set [3] (Table 40, (dC)n•(dG)35, dGTP, 37 °C, mean ± SD) and 130 ± 32 s⁻¹ in data set [4] (Table 40, (dC)n•(dG)35, dGTP, 72 °C, mean ± SD).

B1: Clostridium thermosulfurogenes DNA polymerase, N-terminal His6 tag (Cth-His), SEQ ID NO:15 (Thermoanaerobacterium thermosulfurigenes) (protein)
chain: MKYLLPTAAAGLLLLAAQPAMAMAKFLIIDGNSLMYRAYFALPDLMNSEGMHTNAIYGFSMMLLKLLEEEKPDYIAIAFDKKASTFRHKEYSAYKGTRQSMPEELIEQVDILKDVINAFNIKTIEIEGFEADDIIGTVSKIASESGMDVLIVTGDRDALQLVSANVKVKICKKGITQMDEYDEKAVFEKYEVTPLQFIDLKGLMGDKSDNIPGVPNIGEKTAIKLVKEFGSIENLLMNTDKLKGKIKENVENNAELAVLSKRLATIERNVPIDIDLNEYAVKNYDVNKLTELFEKLEFSSLISDLKDDSRDTKDIKEWPVRDFTYVKNVLGKFDVLSLYPFIYDGKIKAVSFACGDGSFFVEIDDYDNFKLLNNDKLTLIGHDLKDFLVNISYCGIELNCKILDTAIMTYLLNPSESNYDISRVLKKYLKEDLQNIDDIVGKGRNKKSYDDIDKKLLVDYMCSAASNLSKLKDKLMSFIKEMEMEDLLKNVEIPLIEVLKSMEVYGFTLDKDVLRSISKEIDEKTDKIVKDIYDAAGYEFNINSTKQLSEFLFDKLNLPAIKKTKTGYSTDMEVLAELIPYNDIVGEIIEYRQLMKLKSTYIDGFIPIMDENNRVHSTFKQTVAATGRISSTEPNLQNIPVREEFGRRIRKAFVSSYEDGLIISADYSQIELRVLAHLSEDEKLIESFLNNEDIHLRTASEVFKVSKEEVTSEMRRRAKAVNFGIVYGISDYGLSKDLKISRKEAKEYIDNYFDRYKGVKNYIDSIVKFAKENGYVTTILNRRRYIPEINSKNFNQRSFGERMAMNTPIQGSAADIIKMSMVKVYNELKERGLKSRLILQVHDELIIDTHPDEVEIVKELLKSIMENIIKLKVPLVVDIGQGKNWYDAK
For the molecule B1, the kcat was determined as 28 ± 1 s⁻¹ in data set [5] (setting [8]) and 16 ± 1 s⁻¹ in data set [5] (setting [9]).

B2: Clostridium stercorarium DNA polymerase, N-terminal His6 tag (Cst-His), SEQ ID NO:14 (Thermoclostridium stercorarium subsp. stercorarium DSM 8532) (protein)
chain: MKYLLPTAAAGLLLLAAQPAMAMDPKIILIDGNSILNRGFYALSGRSMLTTSTGLYTNAVFAFVNILNKYIEEENPDYIAVAFDLRAKTFRHGLYEGYKAQRKGMPDELAMQIPLAKEVLRAMNIAIIEHEGYEADDIIGSLSLKAEKENFDVIILTGDRDSFQLISDRVKVILPSTKAGKTETNVYDKQAIIDKYGVLPHQLIDVKGLMGDSSDNIPGVPGVGEKTALSLISAYGTLEGVYEHIDEIKQPKLKASLIEYKDQAFLSRKLGTIVRNLELCASLEDLKRKEINRKELLNVFRKLEFESIISKMNLASAEVTELPPAPEELKITHISAAEDLKKWIAYLLNQKNISVLQLIDREDSYSSRLSGLALCTGDEVFYIETGTALPENLIATELKELWQNENIHKIGHNIKEFITWLLKHDVELNGLYFDTMIAEYLIDSIRNGYPIASLSHKYLNRSVPSLDELLGKGKGAKKYSEIPPERLKDYSAYNVKAIFDIWPMQKKVLQENRQEELFNDIELPLITVLASMEYHGFKVDAAKLHEYGEVLLSRIKDLEKVIYMLAGEEFNINSTKQLGTILFEKLKLPVVKSTKTGYSTDVEVLEELYYKHDIIPCIIEYRQLTKLYTTYAEGLEKVINPVTGKIHSSFNQTVTATGRISSTEPNLQNIPVRHEMGREIRKAFIPSSENAVFVDADYSQIELRVLAHITGDEALINAFVKGEDIHTATASLVFDVAPEDVTPELRRKAKAVNFGIVYGISDYGLARDLGITRKEAKRYIDDYFAKYPKVKTYVDEIVRVGQEQGYVETLFHRRRYLPELASKNFHQRSFGKRVAMNTPIQGTAADIIKIAMVKVYKALKESGLKSRLILQVHDELVIETFEDELETVKELVKKCMEEAVELSVPLVVDVSIGKNWYEAS
Turning to B2, the kcat in data set [5] (setting [8]) stood at 40 ± 13 s⁻¹; in data set [5] (setting [9]), 88 ± 5 s⁻¹.
